Measurements as given in US11034913B2, “Metal working fluid” (Henkel AG & Co. KGaA, priority 2015, dated 2021).
“Also recorded” adds a separate entry of the source.

Test system: mixed Gram-negative bacteria
Test: Minimum inhibitory concentration testing (biostat candidate screening, Phase 1 and Phase 2; dip slide counts)
Assay type: cell-based
Settings: for Differential Value Scores, Average / Differential Value Scores, Round 1 / Differential Value Scores, Round 2 / Differential Value Scores, Round 3: Phase 1, scale 0-6, 3 = matches DCHA standard; for Differential Value Scores, Average: average of Rounds 1-3; for Differential Value Scores, Round 1 / Differential Value Scores, Round 2 / Differential Value Scores, Round 3: log bacterial counts at 24 and 48 h versus DCHA standard, higher = better; for Biostatic efficacy regarding Gram-negative bacteria compared with the DCHA standard: result in words, 3 wt. % amine in metal working fluid
[1] = Phase 2, Round 1, dilution 3 %, 24 hours
[2] = Phase 2, Round 1, dilution 3 %, 48 hours
[3] = Phase 2, Round 1, dilution 4 %, 24 hours
[4] = Phase 2, Round 1, dilution 4 %, 48 hours
[5] = Phase 2, Round 1, dilution 5 %, 24 hours
[6] = Phase 2, Round 1, dilution 5 %, 48 hours
[7] = Phase 2, Round 2, dilution 4 %, 24 hours
[8] = Phase 2, Round 2, dilution 4 %, 48 hours
[9] = Phase 2, Round 2, dilution 5 %, 24 hours
[10] = Phase 2, Round 2, dilution 5 %, 48 hours
[11] = Phase 2, Round 2, dilution 6 %, 24 hours
[12] = Phase 2, Round 2, dilution 6 %, 48 hours

CN(C)CCCN(C)CCCN(C)C [C13, N,N,N′,N″,N″-pentamethyl-dipropylenetriamine]
Amount of new Gram-negative bacteria colonies [1]: 10^7
Amount of new Gram-negative bacteria colonies [2]: 10^7
Amount of new Gram-negative bacteria colonies [3]: 10^7
Amount of new Gram-negative bacteria colonies [4]: 10^7
Amount of new Gram-negative bacteria colonies [5]: 10^3
Amount of new Gram-negative bacteria colonies [6]: 10^7
Amount of new Gram-negative bacteria colonies [7]: 10^2
Amount of new Gram-negative bacteria colonies [8]: 10^7
Amount of new Gram-negative bacteria colonies [9]: 10^2
Amount of new Gram-negative bacteria colonies [10]: 10^7
Amount of new Gram-negative bacteria colonies [11]: 10^2
Amount of new Gram-negative bacteria colonies [12]: 10^7

NC1CCC(CC2CCC(N)CC2)CC1 (stereo not shown) [C11, 4,4′-methylene bis(cyclohexylamine)]
Amount of new Gram-negative bacteria colonies [1]: 10^7
Amount of new Gram-negative bacteria colonies [2]: 10^7
Amount of new Gram-negative bacteria colonies [3]: 10^5
Amount of new Gram-negative bacteria colonies [4]: 10^7
Amount of new Gram-negative bacteria colonies [5]: 10^5
Amount of new Gram-negative bacteria colonies [6]: 10^7
Amount of new Gram-negative bacteria colonies [7]: 10^2
Amount of new Gram-negative bacteria colonies [8]: 10^7
Amount of new Gram-negative bacteria colonies [9]: 10^2
Amount of new Gram-negative bacteria colonies [10]: 10^7
Amount of new Gram-negative bacteria colonies [11]: 10^2
Amount of new Gram-negative bacteria colonies [12]: 10^7

NCC1CCCC(CN)C1 (stereo not shown) [C2, 1,3-bis(aminomethyl)cyclohexane]
Differential Value Scores, Average: 2.5
Differential Value Scores, Round 1: 2.5
Differential Value Scores, Round 2: 4
Differential Value Scores, Round 3: 1

CCCCCCCCN [Example 6, Octylamine]
Biostatic efficacy regarding Gram-negative bacteria compared with the DCHA standard: surpassed the DCHA standard; also recorded: better biostatic performance than the DCHA control

CN(C)CCN(C)CCN(C)C [C14, Pentamethyldiethylene triamine]
Amount of new Gram-negative bacteria colonies [1]: 10^7
Amount of new Gram-negative bacteria colonies [2]: 10^7
Amount of new Gram-negative bacteria colonies [3]: 10^7
Amount of new Gram-negative bacteria colonies [4]: 10^7
Amount of new Gram-negative bacteria colonies [5]: 10^7
Amount of new Gram-negative bacteria colonies [6]: 10^7
Amount of new Gram-negative bacteria colonies [7]: 10^3
Amount of new Gram-negative bacteria colonies [8]: 10^7
Amount of new Gram-negative bacteria colonies [9]: 10^2
Amount of new Gram-negative bacteria colonies [10]: 10^7
Amount of new Gram-negative bacteria colonies [11]: 10^3
Amount of new Gram-negative bacteria colonies [12]: 10^7

NCC1CCCCC1 [C8, Aminomethylcyclohexane]
Differential Value Scores, Average: 1.5
Differential Value Scores, Round 1: 1
Differential Value Scores, Round 2: 2.5
Differential Value Scores, Round 3: 1

CCCCC(CC)CN (stereo not shown) [Example 2, 2-ethylhexylamine]
Differential Value Scores, Average: 4.3
Differential Value Scores, Round 1: 4
Differential Value Scores, Round 2: 4.5
Differential Value Scores, Round 3: 4.5

CCCCCN [Comparative Example C4, Amylamine]
Differential Value Scores, Average: 1.7
Differential Value Scores, Round 1: 1.5
Differential Value Scores, Round 2: 2.5
Differential Value Scores, Round 3: 1
Biostatic efficacy regarding Gram-negative bacteria compared with the DCHA standard: worse biostatic capabilities than the DCHA control

NC1CCCCC1N (stereo not shown) [C3, 1,2-cyclohexanediamine]
Differential Value Scores, Average: 2.3
Differential Value Scores, Round 1: 2
Differential Value Scores, Round 2: 4
Differential Value Scores, Round 3: 1
Biostatic efficacy regarding Gram-negative bacteria compared with the DCHA standard (listed as Comparative Example 3): performed below the DCHA standard

NC1CCC(N)CC1 (stereo not shown) [Example 4, 1,4-cyclohexanediamine]
Differential Value Scores, Average: 3.7
Differential Value Scores, Round 1: 4
Differential Value Scores, Round 2: 4.5
Differential Value Scores, Round 3: 2.5
Biostatic efficacy regarding Gram-negative bacteria compared with the DCHA standard: better biostatic performance than the DCHA standard

CCCCCCCN [Example 3, Heptylamine]
Differential Value Scores, Average: 4.2
Differential Value Scores, Round 1: 4
Differential Value Scores, Round 2: 4
Differential Value Scores, Round 3: 4.5
Biostatic efficacy regarding Gram-negative bacteria compared with the DCHA standard: better biostatic performance than the DCHA control

CC(C)CCCC(C)N (stereo not shown) [Example 1, 1,5-dimethylhexylamine]
Differential Value Scores, Average: 4.3
Differential Value Scores, Round 1: 4.5
Differential Value Scores, Round 2: 4
Differential Value Scores, Round 3: 4.5

NCCCCCCN [Comparative Example C1, 1,6-diaminohexane]
Differential Value Scores, Average: 2.5
Differential Value Scores, Round 1: 2
Differential Value Scores, Round 2: 4
Differential Value Scores, Round 3: 1.5

NC1CCCCC1 [C7, Cyclohexylamine]
Differential Value Scores, Average: 1.5
Differential Value Scores, Round 1: 1
Differential Value Scores, Round 2: 2.5
Differential Value Scores, Round 3: 1

CCCCC(CC)CN(CC(CC)CCCC)CC(CC)CCCC (stereo not shown) [C9, Tris(2-ethylhexylamine)]
Amount of new Gram-negative bacteria colonies [1]: 10^7
Amount of new Gram-negative bacteria colonies [2]: 10^7
Amount of new Gram-negative bacteria colonies [3]: 10^5
Amount of new Gram-negative bacteria colonies [4]: 10^7
Amount of new Gram-negative bacteria colonies [5]: 10^4
Amount of new Gram-negative bacteria colonies [6]: 10^7
Amount of new Gram-negative bacteria colonies [7]: 10^3
Amount of new Gram-negative bacteria colonies [8]: 10^7
Amount of new Gram-negative bacteria colonies [9]: 10^2
Amount of new Gram-negative bacteria colonies [10]: 10^7
Amount of new Gram-negative bacteria colonies [11]: 10^2
Amount of new Gram-negative bacteria colonies [12]: 10^7

CC1CCCCC1N (stereo not shown) [C5, 2-methylcyclohexylamine]
Differential Value Scores, Average: 1.7
Differential Value Scores, Round 1: 1
Differential Value Scores, Round 2: 2.5
Differential Value Scores, Round 3: 1.5

CCC(N)CCN (stereo not shown) [C10, 1,3-pentanediamine]
Amount of new Gram-negative bacteria colonies [1]: 10^7
Amount of new Gram-negative bacteria colonies [2]: 10^7
Amount of new Gram-negative bacteria colonies [3]: 10^5
Amount of new Gram-negative bacteria colonies [4]: 10^7
Amount of new Gram-negative bacteria colonies [5]: 10^3
Amount of new Gram-negative bacteria colonies [6]: 10^7
Amount of new Gram-negative bacteria colonies [7]: 10^2
Amount of new Gram-negative bacteria colonies [8]: 10^7
Amount of new Gram-negative bacteria colonies [9]: 10^2
Amount of new Gram-negative bacteria colonies [10]: 10^7
Amount of new Gram-negative bacteria colonies [11]: 10^2
Amount of new Gram-negative bacteria colonies [12]: 10^7

NCCN(CCN)CCN [Example 7, Tris(2-aminoethyl)amine]
Amount of new Gram-negative bacteria colonies [2]: 10^3
Amount of new Gram-negative bacteria colonies [8]: 10^2
Amount of new Gram-negative bacteria colonies [10]: 10^2
Amount of new Gram-negative bacteria colonies [12]: 10^2
Biostatic efficacy regarding Gram-negative bacteria compared with the DCHA standard: surpassed the DCHA standard

CCNC1CCCCC1 [C6, N-ethylcyclohexylamine]
Differential Value Scores, Average: 1.7
Differential Value Scores, Round 1: 1.5
Differential Value Scores, Round 2: 2.5
Differential Value Scores, Round 3: 1
